This experiment deals with T1, IRAK4 (Homo sapiens, UniProt Q9NWZ3).
T1 construct: endogenous in cells; host or cells: OCI-LY10
T1 sequence (Q9NWZ3 1-460): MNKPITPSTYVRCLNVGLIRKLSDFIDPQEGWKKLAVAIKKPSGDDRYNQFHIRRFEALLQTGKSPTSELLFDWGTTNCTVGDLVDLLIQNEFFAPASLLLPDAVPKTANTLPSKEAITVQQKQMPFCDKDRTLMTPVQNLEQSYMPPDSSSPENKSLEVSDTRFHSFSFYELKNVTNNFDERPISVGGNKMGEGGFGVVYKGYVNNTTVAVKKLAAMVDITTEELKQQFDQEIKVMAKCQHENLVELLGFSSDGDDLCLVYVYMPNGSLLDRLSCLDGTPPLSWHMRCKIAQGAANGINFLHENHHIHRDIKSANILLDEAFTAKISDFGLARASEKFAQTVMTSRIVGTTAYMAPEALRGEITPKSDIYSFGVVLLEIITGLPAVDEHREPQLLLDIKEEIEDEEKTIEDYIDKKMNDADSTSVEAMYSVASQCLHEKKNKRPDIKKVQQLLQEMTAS
In words: IRAK4 MSD Degradation in OCI-LY10. The format is cell-based. The following applies: OCI-LY10 cells, Meso Scale Discovery, incubated 4 to 24 hours. The procedure, abridged: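 IRAK4 degradation was quantified by Meso Scale electrochemiluminescence (anti-IRAK4 capture and detection antibodies) in lysates of treated OCI-LY10 cells. Compounds were dosed at 8 concentrations (1:3 dilutions, top 1 to 10 μM) for 4 to 24 h; DC50 derived by three-parameter logistic fitting.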

One may read the DC50 as the concentration giving 50% degradation. A higher DC50 goes with degradation only at high concentration.

In turn, `Cn1c(=O)n(C2CCC(=O)NC2=O)c2cccc(C3CCN(C[C@H]4C[C@H](n5cc6cc(NC(=O)c7cccc(C(F)(F)F)n7)c(F)cc6n5)C4)CC3)c21` (some centres unmarked) [I-30] yielded a DC50 of 10 to 50 nM.
Under `COc1cc2nc([C@H]3CC[C@H](C(=O)N4CCN(CCCNc5cccc6c5C(=O)N(C5CCC(=O)NC5=O)C6=O)CC4)CC3)sc2cc1NC(=O)c1cccc(C(F)(F)F)n1` (some centres unmarked) [I-466] stands 50 to 100 nM.
Under `COc1cc2nn([C@H]3CC[C@H](CN4CCC(c5c(C)ccc6c5n(C)c(=O)n6C5CCC(=O)NC5=O)CC4)CC3)cc2cc1NC(=O)c1cncc(C(F)(F)F)c1` (some centres unmarked) [I-108] stands less than 10 nM; under `COc1cc2nc([C@H]3CC[C@H](CN(C)CCCCNc4cccc5c4C(=O)N(C4CCC(=O)NC4=O)C5=O)CC3)sc2cc1NC(=O)c1cncc(C#N)c1` (some centres unmarked) [I-456], greater than 200 nM.
Under `Cc1nc(C(=O)Nc2cc3cn([C@H]4CC[C@H](CN(C)C5CCN(c6cccc7c6n(C)c(=O)n7C6CCC(=O)N(C)C6=O)CC5)CC4)nc3cc2C(C)(C)O)co1` (some centres unmarked) [I-61] stands greater than 200 nM.
`COc1cc2nn([C@H]3CC[C@H](CN(C)C4CCN(c5cccc6c5n(C)c(=O)n6C5CCC(=O)NC5=O)CC4)CC3)cc2cc1NC(=O)c1cncc(Cl)c1` (some centres unmarked) [I-80]: the DC50 was less than 10 nM.
For the compound `COc1ccc2c(c1C1CCN(C[C@H]3C[C@H](n4cc5cc(NC(=O)c6cccc(C(F)(F)F)n6)ccc5n4)C3)CC1)n(C)c(=O)n2C1CCC(=O)NC1=O` (some centres unmarked) [I-152], the DC50 was in the range of 10 to 50 nM.
Under `COc1cc2nn([C@H]3CC[C@H](CN4CCC(c5cccc6c5n(C)c(=O)n6C5CCC(=O)NC5=O)CC4)CC3)cc2cc1NC(=O)c1cncc(C(F)(F)F)c1` (some centres unmarked) [I-86] stands less than 10 nM; under `COc1cc2nn([C@H]3CC[C@H](CN4CCCN(c5cccc6c5n(C)c(=O)n6C5CCC(=O)NC5=O)CC4)CC3)cc2cc1NC(=O)c1cncc(C#N)c1` (some centres unmarked) [I-367], 10 to 50 nM.
Then `Cn1c(=O)n(C2CCC(=O)NC2=O)c2ccc(Cl)c(C3CCN(C[C@H]4CC[C@H](n5cc6cc(NC(=O)c7cccc(C(F)(F)F)n7)ncc6n5)CC4)CC3)c21` (some centres unmarked) [I-88], with 10 to 50 nM.
Under `COc1cc2nn([C@H]3CC[C@H](CN4CCC(c5ccc6c(c5)n(C)c(=O)n6C5CCC(=O)NC5=O)CC4)CC3)cc2cc1NC(=O)c1cncc(C#N)c1` (some centres unmarked) [I-169] stands greater than 200 nM.
In turn, `COc1cc2nn([C@H]3CC[C@H](CN4C[C@H]5C[C@@H]4CN5c4cccc5c(N6CCC(=O)NC6=O)cncc45)CC3)cc2cc1NC(=O)c1cccc(C(F)(F)F)n1` [I-155] returned a half-maximal degradation concentration (DC50) of 10 to 50 nM.
Under `COc1cc2nn([C@H]3CC[C@H](CN4CCN(c5cccc6c(N7CCC(=O)NC7=O)ccnc56)CC4)CC3)cc2cc1NC(=O)c1cccc(C(F)(F)F)n1` [I-382] stands less than 10 nM; under `Cc1cccc(C(=O)Nc2cc3sc([C@H]4CC[C@H](C(=O)N5CC6(CCN(CCNc7cccc8c7C(=O)N(C7CCC(=O)NC7=O)C8=O)CC6)C5)CC4)nc3cc2C(C)(C)O)n1` (some centres unmarked) [I-468], 10 to 50 nM.
Under `O=C1CCN(c2cncc3cc(N4CCN(C[C@H]5CC[C@H](n6cc7cc(NC(=O)c8cccc(C(F)(F)F)n8)ccc7n6)CC5)CC4)ccc23)C(=O)N1` [I-161] stands greater than 200 nM; under `CC(C)(O)c1cc2nc([C@H]3CC[C@H](C(=O)N4CC5(CC(CCNc6cccc7c6C(=O)N(C6CCC(=O)NC6=O)C7=O)C5)C4)CC3)sc2cc1NC(=O)c1cncc(C#N)c1` (some centres unmarked) [I-448], greater than 200 nM.
Consider `O=C1CCN(c2cncc3c(C4CCN(C[C@H]5CC[C@H](n6cc7cc(NC(=O)c8cccc(C(F)(F)F)n8)c(C(F)F)cc7n6)CC5)CC4)cccc23)C(=O)N1` [I-293], for which the DC50 is less than 10 nM.
Under `Cc1cc(C2CCN(C[C@H]3CC[C@H](n4cc5cc(NC(=O)c6cccc(C(F)(F)F)n6)c(F)cc5n4)CC3)CC2)c2c(c1)n(C1CCC(=O)NC1=O)c(=O)n2C` (some centres unmarked) [I-23] stands 100 to 200 nM.
Under `Cn1c(=O)n(C2CCC(=O)NC2=O)c2cccc(C3CCN(C[C@H]4CC[C@H](c5cc6cc(NC(=O)c7cccc(C(F)(F)F)n7)ccn6n5)CC4)CC3)c21` (some centres unmarked) [I-242] stands less than 10 nM; under `Cn1c(=O)n(C2CCC(=O)NC2=O)c2cccc(N3CCN(C[C@H]4CC[C@H](n5cc6cc(NC(=O)c7cncc(C#N)c7)c(OC(F)(F)F)cc6n5)CC4)CC3)c21` (some centres unmarked) [I-160], greater than 200 nM.
`Cn1c(=O)n(C2CCC(=O)NC2=O)c2ccc(Cl)c(C3CCN(C[C@H]4C[C@H](n5cc6cc(NC(=O)c7cccc(C(F)(F)F)n7)ccc6n5)C4)CC3)c21` (some centres unmarked) [I-150] registered a half-maximal degradation concentration (DC50) of 100 to 200 nM.
Under `COc1ccc2c(c1C1CCN(C[C@H]3CC[C@H](n4cc5cc(NC(=O)c6cccc(C(F)(F)F)n6)c(F)cc5n4)CC3)CC1)n(C)c(=O)n2C1CCC(=O)NC1=O` (some centres unmarked) [I-47] stands 10 to 50 nM; under `COc1ccc2c(c1C1CCN(C[C@H]3CC[C@H](n4cc5cc(NC(=O)c6cccc(C#N)n6)ccc5n4)CC3)CC1)n(C)c(=O)n2C1CCC(=O)NC1=O` (some centres unmarked) [I-200], less than 10 nM.
Under `COc1ccc2c(c1C1CCN(C[C@H]3CC[C@H](n4cc5cc(NC(=O)c6cccc(C(F)(F)F)n6)ncc5n4)CC3)CC1)n(C)c(=O)n2C1CCC(=O)NC1=O` (stereo partly drawn) [I-104, N-[2-[4-[[4-[1-[(3S)-2,6-dioxo-3-piperidyl]-5-methoxy-3-methyl-2-oxo-benzimidazol-4-yl]-1-piperidyl]methyl]cyclohexyl]pyrazolo[3,4-c]pyridin-5-yl]-6-(trifluoromethyl)pyridine-2-carboxamide] stands less than 10 nM.
Under `CC(C)(O)c1cc2nc([C@H]3CC[C@H](C(=O)N4CCN(CCCNc5cccc6c5C(=O)N(C5CCC(=O)NC5=O)C6=O)CC4)CC3)sc2cc1NC(=O)c1cccc(C#N)n1` (some centres unmarked) [I-435] stands 10 to 50 nM.
Turning to `COc1cc2nn([C@H]3CC[C@H](CN4CCC(c5cccc6c5n(C)c(=O)n6C5CCC(=O)NC5=O)CC4)CC3)cc2cc1NC(=O)c1ccccc1F` (some centres unmarked) [I-174], the half-maximal degradation concentration (DC50) was less than 10 nM.
Then `O=C1CCC(N2C(=O)c3cccc(NCCC4CC5(C4)CN(C[C@H]4CC[C@H](n6cc7cc(NC(=O)c8cccc(C(F)(F)F)n8)c(OC8CC8)cc7n6)CC4)C5)c3C2=O)C(=O)N1` (some centres unmarked) [I-2], with greater than 200 nM.
Consider `COc1cc2nn([C@H]3CC[C@H](CN4CCC(c5c(Cl)ccc6c5n(C)c(=O)n6C5CCC(=O)NC5=O)CC4)CC3)cc2cc1NC(=O)c1cccc(C(F)(F)F)n1` (some centres unmarked) [I-37], for which the half-maximal degradation concentration (DC50) is less than 10 nM.
Then `Cc1cc2nn([C@H]3CC[C@H](CN4CCN(c5cccc6c(N7CCC(=O)NC7=O)cncc56)CC4)CC3)cc2cc1NC(=O)c1cccc(C(F)(F)F)n1` [I-261], with 10 to 50 nM; and `COc1cc2nc(N3CCC(CN4CCN(c5cccc6c5n(C)c(=O)n6C5CCC(=O)NC5=O)CC4)CC3)sc2cc1NC(=O)c1cccc(C(F)(F)F)n1` (centres unmarked) [I-427], with 10 to 50 nM; and `Cn1c(=O)n(C2CCC(=O)NC2=O)c2cccc(N3C[C@@H]4C[C@H]3CN4C[C@H]3CC[C@H](n4cc5cc(NC(=O)c6cccc(C(F)(F)F)n6)ccc5n4)CC3)c21` (some centres unmarked) [I-423], with less than 10 nM.
Then `COc1cc2nn([C@H]3C[C@H](CN(C)C4CCN(c5cccc6c5n(C)c(=O)n6C5CCC(=O)NC5=O)CC4)C3)cc2cc1NC(=O)c1cccc(C(F)(F)F)n1` (some centres unmarked) [I-31, N-[2-[3-[[[1-[1-(2,6-dioxo-3-piperidyl)-3-methyl-2-oxo-benzimidazol-4-yl]-4-piperidyl]-methyl-amino]methyl]cyclobutyl]-6-methoxy-indazol-5-yl]-6-(trifluoromethyl)pyridine-2-carboxamide], with less than 10 nM.
Under `CC(C)Nc1cc(-n2ccc3cc(C(F)(F)F)cnc32)ncc1C(=O)N[C@H]1CC[C@H](CN2CCN(c3cccc4c3n(C)c(=O)n4C3CCC(=O)NC3=O)CC2)CC1` (some centres unmarked) [I-369] stands 100 to 200 nM; under `COc1cc2nn([C@H]3CC[C@H](CN4CCN(c5cccc6c5n(C)c(=O)n6C5CCC(=O)NC5=O)CC4)CC3)cc2cc1NC(=O)c1cccc(C(F)(F)F)c1F` (some centres unmarked) [I-216], less than 10 nM; under `CC(C)Nc1cc(-n2ccc3cc(C#N)cnc32)ncc1C(=O)NC[C@H]1CC[C@H](CN(C)C2CCN(c3cccc4c3n(C)c(=O)n4C3CCC(=O)NC3=O)CC2)CC1` (some centres unmarked) [I-105], 50 to 100 nM.
Compound `CC(C)Nc1cc(-n2ccc3cc(C#N)cnc32)ncc1C(=O)N[C@H]1CC[C@H](CN2CCN(c3cccc4c(N5CCC(=O)NC5=O)cncc34)CC2)CC1` [I-372] returned a half-maximal degradation concentration (DC50) of less than 10 nM.
Then `COc1cc(NC(=O)c2cccc(C(F)(F)F)n2)cc2cn([C@H]3CC[C@H](CN4CCN(c5cccc6c(N7CCC(=O)NC7=O)cncc56)CC4)CC3)nc12` [I-222], with less than 10 nM; and `O=C1CCN(c2cncc3c(C4CCN(C[C@H]5CC[C@H](c6nc7cnc(NC(=O)c8cccc(C(F)(F)F)n8)cc7s6)CC5)CC4)cccc23)C(=O)N1` [I-171], with 10 to 50 nM; and `COc1cc(NC(=O)c2cccc(C(F)(F)F)n2)cc2cn([C@H]3CC[C@H](CN4CCN(c5cccc6c5n(C)c(=O)n6C5CCC(=O)NC5=O)CC4)CC3)nc12` (some centres unmarked) [I-218], with less than 10 nM.
Then `COc1ccc2c(c1C1CCN(C[C@H]3CC[C@H](n4cc5cc(NC(=O)c6cccc(C(F)(F)F)n6)ccc5n4)CC3)CC1)n(C)c(=O)n2C1CCC(=O)NC1=O` (some centres unmarked) [I-75], with 10 to 50 nM; and `Cc1cc2nn([C@H]3CC[C@H](CN4C[C@H]5C[C@@H]4CN5c4cccc5c4n(C)c(=O)n5C4CCC(=O)NC4=O)CC3)cc2cc1NC(=O)c1cccc(C(F)(F)F)n1` (some centres unmarked) [I-389], with 10 to 50 nM.
